Measurements as given in patent US20240206463A1, “AGROCHEMICAL COMPOSITION” (NOURYON CHEMICALS INTERNATIONAL B.V., priority 2021, published 2024).
Like-named read-outs stand apart in the source and are kept apart here.

What was measured:
[1] = Diluents lowering the melting point of pelargonic acid: visual appearance (crystal/clear) of pelargonic acid/diluent blends at low temperature
[2] = Wetting/spreading of a drop on a hydrophobic polystyrene dish; type: physicochemical; details: in water (0.5-3.7%)
Source text: It was unexpectedly discovered that there is a synergy in wetting/spreading between C9 acid and phosphate ester exemplified by PE2 (C1216-30 phosphate ester). […] That is, a drop of the solution balls up with a large contact angle on the dish.

[3] = pelargonic acid 30 wt % + diluent 70 wt %
[4] = pelargonic acid 50 wt % + diluent 50 wt %
[5] = pelargonic acid 60 wt % + diluent 40 wt %
[6] = pelargonic acid 70 wt % + diluent 30 wt %
[7] = pelargonic acid 80 wt % + diluent 20 wt %
[8] = pelargonic acid 65 wt % + diluent 35 wt %
[9] = pelargonic acid 75 wt % + diluent 25 wt %

Compound	diluent amount required to lower the melting point of pelargonic acid to 0° C. (or lower) [1]	appearance at 0° C. [1, 3]	appearance at −20° C. [1, 3]	appearance at 0° C. [1, 4]	appearance at −20° C. [1, 4]	appearance at 0° C. [1, 5]	appearance at −20° C. [1, 5]	appearance at 0° C. [1, 6]	appearance at −20° C. [1, 6]	appearance at 0° C. [1, 7]	appearance at −20° C. [1, 7]	appearance at 0° C. [1, 8]	appearance at −20° C. [1, 8]	appearance at 0° C. [1, 9]	appearance at −20° C. [1, 9]	ability to wet a hydrophobic polystyrene dish [2]	appearance at 0° C. [1]	appearance at −20° C. [1]
CCCCC(CC)C(=O)O (stereo not drawn) [2-EH acid, 2-ethyhexanoic acid]	30%	Clear	Clear	Clear	Crystal	Clear	Crystal	Clear	Crystal	Crystal	Crystal	–	–	–	–	–	–	–
CCCCC(CC)CO (stereo not drawn) [2-EH alcohol, 2-ethylhexanol]	30%	Clear	Clear	Clear	Crystal	Clear	Crystal	Clear	Crystal	Crystal	Crystal	–	–	–	–	–	–	–
CCCCOC(C)=O [Butyl Acetate]	–	Clear	Clear	Clear	Crystal	–	–	Clear	Crystal	–	–	Clear	Crystal	Clear	Crystal	–	–	–
CCCCCCCCC(=O)O [C9 acid, pelargonic acid]	–	–	–	–	–	–	–	–	–	–	–	–	–	–	–	not able to wet	–	–
CCCCCCC(=O)O [Heptanoic acid]	25%	–	–	–	–	–	–	–	–	–	–	–	–	Clear	Crystal	–	–	–
COC(=O)c1ccccc1 [Methyl benzoate]	–	–	–	–	–	–	–	–	–	–	–	–	–	–	–	–	Clear	Crystal
COC(=O)c1ccccc1O [Methyl salicylate]	35%	–	–	Clear	Crystal	–	–	Crystal	Crystal	–	–	Clear	Crystal	Crystal	Crystal	–	–	–
CCCCCCCCOC(=O)C(C)O (stereo not drawn) [Octyl lactate]	30%	Clear	Crystal	Clear	Crystal	–	–	Crystal	Crystal	–	–	Crystal	Crystal	Crystal	Crystal	–	–	–
CCCCC(=O)O [Valeric C5 acid, valeric acid]	30%	–	–	–	–	–	–	Clear	Crystal	–	–	–	–	–	–	–	–	–
C=C(C)[C@H]1CC=C(C)CC1 [d-limonene]	–	Clear	Clear	Clear	Crystal	–	–	Clear	Crystal	–	–	Clear	Crystal	Crystal	Crystal	–	–	–
CCOP(=O)(OCC)OCC [triethylphosphate]	–	–	–	–	–	–	–	–	–	–	–	–	–	–	–	–	Clear	–
